{"source": "patent US20240174631A1", "about": "“COMPOUNDS, COMPOSITIONS, AND METHODS FOR MODULATING FGF ACTIVITY” (Recovery Therapeutics, Inc., priority 2021, published 2024)", "key": {"FGFR1 [1]": {"biological_target": "T1, FGFR1 (Homo sapiens, UniProt P11362)", "assay": "Thermal shift assay (TSA) of FGFR1/FGF2 complex, FGFR1 melting peak", "format": "binding", "parameters": "made in house; host or cells: Escherichia coli BL21 (DE3) Star", "description": "(§1) TSA was utilized to biophysically characterize the recombinant human FGFR1/FGF2 complex in the presence or absence of compounds. The assay functions by protein denaturation over a temperature gradient. During protein unfolding, exposed hydrophobic regions bind a dye and fluoresce due to solvent relaxation effects. Changes in the melting temperature of the protein complex in the presence of each compound were monitored and compounds were screened/ranked using this method.\nCell pellets were thawed and resuspend in 100 mL of FGFR1 Lysis Buffer per 9 g of pellet (20 mM Tris-HCl pH 8.0, 500 mM NaCl, 1 mM dithiothreitol) by stirring at 4° C. for 1 hour. Cells were lysed in 3 cycles on/off for 3 minutes each at 4° C. via sonication followed by centrifugation for 30 minutes at 16,000 RPM in rotor F20 at 4° C., after which the supernatant was discarded. This process was then repeated twice. The pellets were resuspended in 150 mL FGFR1 solubilization buffer (8 M urea, 20 mM Tris-HCL pH 8.0, 150 mM NaCl, 1 mM dithiothreitol) by stirring for 1 hour at 4° C., and the solution was subjected to centrifugation for 30 minutes at 16,000 RPM in rotor F20 at 4° C. The pellets were discarded, and the supernatant was filtered through a […] polyethersylfone (PES) filter. After filtration, the supernatant was added dropwise to 1 L FGFR1 refolding buffer (20 mM Tris-HCl pH 8.0, 150 mM NaCl, 0.5 M L-arginine, 25 mM MgCl2) using a glass column. Protein was concentrated by tangential flow from 1 L to 100 mL and dialyzed against 1 L of FGFR1 Dialysis Buffer (20 mM Tris-HCl pH 8.0, 150 mM NaCl, 25 mM MgCl2) for 2 hours at 4° C., and the dialysis step was repeated with fresh buffer for an additional 2 hours at 4° C. The material thus obtained was then centrifuged at 4000 RPM in Eppendorf tabletop centrifuge for 5 minutes and loaded onto 2×5 mL heparin columns. The columns were washed extensively (20 CV) using FGFR1 Heparin Buffer A (20 mM Tris-HCl pH 8.0, 150 mM NaCl, 25 mM MgCl2) and then eluted using FGFR1 Heparin Buffer B (20 mM Tris-HCl pH 8.0, 1.5 M NaCl, 25 mM MgCl2). A large peak was recovered that was >95% pure by SDS-PAGE analysis gel (Expected Mw: 25 KDa). The protein was collected and diluted in 20 mM Tris-HCl pH 8.0, 25 mM MgCl2 buffer in order to reach a NaCl concentration of 150 mM. The FGFR1 thus obtained was concentrated and stored at −80° C.\n(§2) Thawed aliquots of purified FGF2 (1.0 mg/mL) and FGFR1 (1.6 mg/mL) proteins were mixed in a 1:1 molar ratio (64 μM: 64 μM) on ice for 30 min at 4° C. and plated prior to the thermal shift assay (TSA). Complex formation was verified by loading the complexed material on a size exclusion column (superdex 300GL S200) and observing the monodisperse peak corresponding to the FGF2/FGFR1 complex (˜40 kDa). Compounds of the invention were screened in dose response format (0-100 μM) with the FGF2/FGFR1 complex in triplicates. FGF2/FGFR1/compound complexes were mixed in a 1000:1 ratio with Sypro Orange dye (Sigma-Aldrich). The samples were processed using a Bio-Rad CFX C96 Touch quantitative polymerase chain reaction and run using the FRET assay settings with a heating ramp of 0.3° C./s cycling from 4 to 100° C. Data analysis was performed using the Bio-Rad CFX Manager Software (version 3.1, Bio-Rad) and changes in the melting temperature (Tm) of the complex in the presence of each compound were monitored. The results are shown in Tables 2 and 3 below and also in FIG. 1 (for Compound 2)."}, "FGFR1 [2]": {"biological_target": "T1, FGFR1", "assay": "Phosphorylation of FGFR1 in cells expressing FGFR1 in the presence of submaximal FGF-2", "format": "cell-based", "conditions": "increasing concentrations, submaximal concentration of FGF-2; FIG. 2", "experimental": "Cells expressing FGFR1 were exposed to increasing concentrations of Compound 2 in the presence of a submaximal concentration of FGF-2. Cells were then lysed, and the relative phosphorylation of FGFR1 was assessed using antibodies to non-phosphorylated and phosphorylated FGFR1. The results are shown in FIG. 2, which is a graph showing the phosphorylation of FGFR1 in the presence of increasing concentrations of Compound 2."}, "FGF2": {"biological_target": "T2, FGF2 (Homo sapiens, UniProt P09038)", "T2 construct": "made in house; host or cells: Escherichia coli BL21 (DE3) Star", "T2 sequence (P09038 156-288 limits assumed)": "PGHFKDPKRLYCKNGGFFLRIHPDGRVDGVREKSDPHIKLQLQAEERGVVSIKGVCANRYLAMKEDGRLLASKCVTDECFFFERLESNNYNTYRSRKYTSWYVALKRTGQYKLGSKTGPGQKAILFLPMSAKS", "T2 sequence (P11362 142-365 partner limits assumed)": "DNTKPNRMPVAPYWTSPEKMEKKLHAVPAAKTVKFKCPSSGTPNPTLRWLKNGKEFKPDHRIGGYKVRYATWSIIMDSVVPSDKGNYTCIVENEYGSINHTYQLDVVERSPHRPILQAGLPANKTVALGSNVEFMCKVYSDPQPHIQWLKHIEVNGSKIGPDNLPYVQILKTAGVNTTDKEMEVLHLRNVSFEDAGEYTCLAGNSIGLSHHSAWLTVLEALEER", "assay": "Thermal shift assay (TSA) of FGFR1/FGF2 complex, FGF2 melting peak", "format": "binding", "description": "as §1\nOne Shot BL21 (DE3) Star Escherichia coli competent cells (Thermo Fisher) were transformed with a relevant FGF2 plasmid and inoculated onto Ampicillin Luria Broth/Agar plates. Two hundred milliliter portions of Terrific Broth starter cultures were used to inoculate 9 L cultures with ampicillin at a concentration of 100 μg/mL. Cultures were grown to an O.D.600 near 1.0 at 37° C., and induced with IPTG overnight at 18° C. The cells were harvested at 7000 RPM in rotor 6000 for 5 min at 4° C. and stored at −80° C. Bacterial pellets were resuspended in 25 mM Hepes-NaOH, pH 7.5, 250 mM NaCl, and the cells were lysed in 3 cycles on/off for 3 minutes each at 4° C. via sonication. After centrifugation for 30 minutes at 16,000 RPM at 4° C., the isolated pellets were discarded, and the supernatant was filtered supernatant through a […] PES filter using 100 mL superloop. The lysate was purified over a 5 mL S column by washing the column with Lysis buffer for 5 CV then eluting using gradient from 250 mM to 1 M NaCl over 20 CV. The fractions containing FGF2 were identified via SDS-PAGE gel (Expected Mw: 15.2 KDa). The protein was collected and diluted in 20 mM Tris-HCl pH 8.0, 25 mM MgCl2 buffer in order to reach a NaCl concentration of 150 mM. The purified FGF2 was concentrated and stored at −80° C.\nas §2"}}, "data": [{"smiles": "CCN(CC)c1ccc2c(c1)CCN(C1CCN(C(c3ccccc3)c3ccccc3)CC1)C2", "note": "[Compound 2, 2-(1-benzhydrylpiperidin-4-yl)-N,N-diethyl-1,2,3,4-tetrahydroisoquinolin-6-amine]", "values": [{"measurement": "ΔTm at 2 µM", "setting": "FGFR1 [1]; 2 μM compound, FGF2/FGFR1 complex", "value": 4, "unit": "°C"}, {"measurement": "ΔTm at 10 µM", "setting": "FGFR1 [1]; 10 μM compound, FGF2/FGFR1 complex", "value": 4.5, "unit": "°C"}, {"measurement": "shift of the melting curve of the FGF-2/FGFR1 complex (TSA)", "setting": "FGFR1 [1]; 10 μM, purified FGF-2/FGFR1 complex, FIG. 1", "value": "increased stability of the complex"}, {"measurement": "phosphorylation of FGFR1", "setting": "FGFR1 [2]", "value": "augmented the effects of FGF-2"}, {"measurement": "ΔTm at 2 µM", "setting": "FGF2; 2 μM compound", "value": -2.5, "unit": "°C"}, {"measurement": "ΔTm at 10 µM", "setting": "FGF2; 10 μM compound", "value": -3, "unit": "°C"}]}]}
